{
  "source": "patent US20250304560A1",
  "about": "“MODULATORS OF NLRP3 INFLAMMASOME AND RELATED PRODUCTS AND METHODS” (Neumora Therapeutics, Inc., priority 2022, published 2025)",
  "key": {"IL-6": {"tested_on": "IL-6", "assay": "IL-6 AlphaLISA in LPS-primed THP1 macrophages", "conditions": "Homo sapiens, THP-1, read-out: IL-6 Activity (μM)"}, "NLRP3 inflammasome": {"target": "NLRP3 inflammasome (Homo sapiens, UniProt Q96P20)", "sequence (Q96P20 whole entry)": "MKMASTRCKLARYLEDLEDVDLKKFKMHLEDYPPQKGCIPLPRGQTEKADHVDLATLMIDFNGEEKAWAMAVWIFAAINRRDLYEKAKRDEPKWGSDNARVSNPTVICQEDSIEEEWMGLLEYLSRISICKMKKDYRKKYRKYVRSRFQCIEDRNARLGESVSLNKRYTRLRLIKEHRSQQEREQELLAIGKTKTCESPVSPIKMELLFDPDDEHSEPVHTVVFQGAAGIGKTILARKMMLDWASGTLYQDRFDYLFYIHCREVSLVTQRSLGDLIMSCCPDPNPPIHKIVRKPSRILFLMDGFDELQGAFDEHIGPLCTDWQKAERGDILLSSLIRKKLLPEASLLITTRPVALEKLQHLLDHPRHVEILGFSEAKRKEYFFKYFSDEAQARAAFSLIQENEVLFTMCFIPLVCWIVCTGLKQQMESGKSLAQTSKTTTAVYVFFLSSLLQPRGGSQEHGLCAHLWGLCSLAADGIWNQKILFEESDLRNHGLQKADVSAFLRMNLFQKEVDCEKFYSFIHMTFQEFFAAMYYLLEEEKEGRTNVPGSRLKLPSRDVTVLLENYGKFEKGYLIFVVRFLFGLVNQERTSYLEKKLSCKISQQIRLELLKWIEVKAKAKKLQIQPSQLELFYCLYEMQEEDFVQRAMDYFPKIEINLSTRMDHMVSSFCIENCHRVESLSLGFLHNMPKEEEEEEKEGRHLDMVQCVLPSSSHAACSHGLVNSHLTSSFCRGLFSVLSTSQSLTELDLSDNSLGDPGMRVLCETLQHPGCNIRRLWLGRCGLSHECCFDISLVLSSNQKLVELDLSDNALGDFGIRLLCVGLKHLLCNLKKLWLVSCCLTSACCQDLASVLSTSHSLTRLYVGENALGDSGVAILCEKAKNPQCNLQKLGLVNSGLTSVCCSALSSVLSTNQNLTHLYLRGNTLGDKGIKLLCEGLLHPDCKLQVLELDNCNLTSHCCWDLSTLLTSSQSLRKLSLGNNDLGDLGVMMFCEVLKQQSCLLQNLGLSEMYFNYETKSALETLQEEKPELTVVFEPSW", "assay": "NLRP3 inflammasome activation in THP1 macrophages, IL-1β AlphaLISA"}},
  "data": [
    {"smiles": "Cc1cc(-c2ccc(C#N)cc2O)nnc1O[C@@H]1CCCN(C)C1", "note": "[compound 101]", "values": [
      {"measurement": "IC50", "setting": "IL-6", "value": "> 10", "unit": "µM"},
      {"measurement": "IC50", "setting": "NLRP3 inflammasome", "value": "> 1000", "unit": "nM"}
    ]},
    {"smiles": "Cc1cc(CC2CCCN(C)C2)nnc1-c1ccc(C#N)cc1O", "note": "(stereo not drawn) [compound 102]", "values": [
      {"measurement": "IC50", "setting": "IL-6", "value": "> 10", "unit": "µM"},
      {"measurement": "IC50", "setting": "NLRP3 inflammasome", "value": "100 to 500", "unit": "nM"}
    ]},
    {"smiles": "Cc1cc(C[C@H]2CCCN(C)C2)nnc1-c1ccc(C(F)(F)F)cc1O", "note": "[compound 104]", "values": [
      {"measurement": "IC50", "setting": "IL-6", "value": "> 10", "unit": "µM"},
      {"measurement": "IC50", "setting": "NLRP3 inflammasome", "value": "1 to 10", "unit": "nM"}
    ]},
    {"smiles": "Cc1cc(C[C@H]2CCCN(C)C2)nnc1-c1ccccc1O", "note": "[compound 105]", "values": [
      {"measurement": "IC50", "setting": "IL-6", "value": "> 10", "unit": "µM"},
      {"measurement": "IC50", "setting": "NLRP3 inflammasome", "value": "> 1000", "unit": "nM"}
    ]},
    {"smiles": "Cc1cc(C[C@H]2CCCN(C)C2)nnc1-c1ccc(F)cc1O", "note": "[compound 106, (R)-5-fluoro-2-(4-methyl-6-((1-methylpiperidin-3-yl)methyl)pyridazin-3-yl) phenol]", "values": [
      {"measurement": "IC50", "setting": "IL-6", "value": "> 10", "unit": "µM"},
      {"measurement": "IC50", "setting": "NLRP3 inflammasome", "value": "> 1000", "unit": "nM"}
    ]},
    {"smiles": "Cc1cc(N[C@@H]2CCCN(C)C2)nnc1-c1ncc(C(F)(F)F)cc1O", "note": "[compound 107]", "values": [
      {"measurement": "IC50", "setting": "IL-6", "value": "> 10", "unit": "µM"},
      {"measurement": "IC50", "setting": "NLRP3 inflammasome", "value": "< 1", "unit": "nM"}
    ]},
    {"smiles": "Cc1cc(N[C@@H]2CCCN(C)C2)nnc1-c1ncccc1O", "note": "[compound 108]", "values": [
      {"measurement": "IC50", "setting": "IL-6", "value": "> 10", "unit": "µM"},
      {"measurement": "IC50", "setting": "NLRP3 inflammasome", "value": "100 to 500", "unit": "nM"}
    ]},
    {"smiles": "Cc1cc(N[C@@H]2CCCN(C)C2)nnc1-c1ncc(F)cc1O", "note": "[compound 109]", "values": [
      {"measurement": "IC50", "setting": "IL-6", "value": "5 to 10", "unit": "µM"},
      {"measurement": "IC50", "setting": "NLRP3 inflammasome", "value": "100 to 500", "unit": "nM"}
    ]},
    {"smiles": "Cc1cc(N2CCC[C@@H](N(C)C)C2)nnc1-c1ccccc1O", "note": "[compound 111]", "values": [
      {"measurement": "IC50", "setting": "IL-6", "value": "> 10", "unit": "µM"},
      {"measurement": "IC50", "setting": "NLRP3 inflammasome", "value": "100 to 500", "unit": "nM"}
    ]},
    {"smiles": "Cc1cc(N2CCC[C@@H](N(C)C)C2)nnc1-c1ccc(C#N)cc1O", "note": "[compound 112]", "values": [
      {"measurement": "IC50", "setting": "IL-6", "value": "> 10", "unit": "µM"},
      {"measurement": "IC50", "setting": "NLRP3 inflammasome", "value": "> 1000", "unit": "nM"}
    ]},
    {"smiles": "Cc1cc(NC[C@H]2CCC(F)(F)C2)nnc1-c1ccccc1O", "note": "[compound 113]", "values": [
      {"measurement": "IC50", "setting": "IL-6", "value": "> 10", "unit": "µM"},
      {"measurement": "IC50", "setting": "NLRP3 inflammasome", "value": "> 1000", "unit": "nM"}
    ]},
    {"smiles": "Cc1cc(NC[C@@H]2CCC(F)(F)C2)nnc1-c1ccccc1O", "note": "[compound 114]", "values": [
      {"measurement": "IC50", "setting": "IL-6", "value": "> 10", "unit": "µM"},
      {"measurement": "IC50", "setting": "NLRP3 inflammasome", "value": "> 1000", "unit": "nM"}
    ]},
    {"smiles": "Cc1cc(NCC2CCOCC2)nnc1-c1ccccc1O", "note": "[compound 115]", "values": [
      {"measurement": "IC50", "setting": "IL-6", "value": "> 10", "unit": "µM"},
      {"measurement": "IC50", "setting": "NLRP3 inflammasome", "value": "> 1000", "unit": "nM"}
    ]},
    {"smiles": "Cc1cc(NC[C@H]2CCCO2)nnc1-c1ccccc1O", "note": "[compound 116]", "values": [
      {"measurement": "IC50", "setting": "IL-6", "value": "> 10", "unit": "µM"},
      {"measurement": "IC50", "setting": "NLRP3 inflammasome", "value": "> 1000", "unit": "nM"}
    ]},
    {"smiles": "Cc1cc(NC[C@@H]2CCCO2)nnc1-c1ccccc1O", "note": "[compound 117]", "values": [
      {"measurement": "IC50", "setting": "IL-6", "value": "> 10", "unit": "µM"},
      {"measurement": "IC50", "setting": "NLRP3 inflammasome", "value": "500 to 1000", "unit": "nM"}
    ]},
    {"smiles": "Cc1cc(NCC23CC(CO2)C3)nnc1-c1ccccc1O", "note": "[compound 118]", "values": [
      {"measurement": "IC50", "setting": "IL-6", "value": "> 10", "unit": "µM"},
      {"measurement": "IC50", "setting": "NLRP3 inflammasome", "value": "> 1000", "unit": "nM"}
    ]},
    {"smiles": "Cc1cc(NC[C@@H]2COCCO2)nnc1-c1ccccc1O", "note": "[compound 120]", "values": [
      {"measurement": "IC50", "setting": "IL-6", "value": "> 10", "unit": "µM"},
      {"measurement": "IC50", "setting": "NLRP3 inflammasome", "value": "> 1000", "unit": "nM"}
    ]},
    {"smiles": "Cc1cc(NC[C@@H]2CCCN2C)nnc1-c1ccccc1O", "note": "[compound 121]", "values": [
      {"measurement": "IC50", "setting": "IL-6", "value": "> 10", "unit": "µM"},
      {"measurement": "IC50", "setting": "NLRP3 inflammasome", "value": "> 1000", "unit": "nM"}
    ]},
    {"smiles": "Cc1cc(NC[C@H]2CCCN2C)nnc1-c1ccccc1O", "note": "[compound 122]", "values": [
      {"measurement": "IC50", "setting": "IL-6", "value": "> 10", "unit": "µM"},
      {"measurement": "IC50", "setting": "NLRP3 inflammasome", "value": "> 1000", "unit": "nM"}
    ]},
    {"smiles": "COC(C)(C)C(=O)Nc1cc(C)c(-c2ccccc2O)nn1", "note": "[compound 123]", "values": [
      {"measurement": "IC50", "setting": "IL-6", "value": "> 10", "unit": "µM"},
      {"measurement": "IC50", "setting": "NLRP3 inflammasome", "value": "> 1000", "unit": "nM"}
    ]},
    {"smiles": "COC(C)(C)CNc1cc(C)c(-c2ccccc2O)nn1", "note": "[compound 124]", "values": [
      {"measurement": "IC50", "setting": "IL-6", "value": "> 10", "unit": "µM"},
      {"measurement": "IC50", "setting": "NLRP3 inflammasome", "value": "> 1000", "unit": "nM"}
    ]}
  ]
}
